Z-SCORE data for 65 compounds are collected here from publication PMC5653977 (EMBO Molecular Medicine, 2017).

Where a name gives a salt, the structure may show the parent alone.

In the first experiment the test system is NRG1-ERBB4 signaling. Briefly: Nrg1-ERBB4-PIK3R1 split TEV co-culture compound screen of the NIH Clinical Collection.
Details: not given
Type of experiment: cell-based, human.
Take `CC(C)c1cccc(C(C)C)c1O` [Propofol, reference compound]: the Z-SCORE was -0.98.

Still in this experiment, the particulars now being: NIH Clinical Collection NCC-003 raw data; compounds ranked by Z-score; 'flagged' given instead of a Z-score.
As to `CC[C@]1(O)C[C@@H]2CN(CCc3c([nH]c4ccccc34)[C@@](C(=O)OC)(c3cc4c(cc3OC)N(C)[C@H]3[C@@](O)(C(N)=O)[C@H](O)[C@]5(CC)C=CCN6CC[C@]43[C@@H]65)C2)C1` [VINDESINE SULFATE], the Z-SCORE result is listed as “flagged”.

Take `CCCCCCCCCOc1ccc2[nH]cc(CCN)c2c1` [5-Nonyloxytryptamine]: the Z-SCORE result is given as “flagged”.

In the case of `COCc1c(C(C)C)nc(C(C)C)c(/C=C/[C@@H](O)C[C@@H](O)CC(=O)[O-])c1-c1ccc(F)cc1.[Na+]` [CERIVASTATIN Na], the Z-SCORE entry is given as “flagged”.

As for `COC(=O)C[C@](O)(CCCC(C)(C)O)C(=O)O[C@@H]1C(OC)=C[C@]23CCCN2CCc2cc4c(cc2[C@H]13)OCO4` [HOMOHARRINGTONINE], the Z-SCORE entry is reported as “flagged”.

`Clc1ccc(CO/N=C(\Cn2ccnc2)c2ccc(Cl)cc2Cl)c(Cl)c1` [OXICONAZOLE NITRATE] displayed a Z-SCORE of -1.71.

Consider `Cc1c(OCC(F)(F)F)ccnc1C[S+]([O-])c1nc2ccccc2[nH]1` (stereo not drawn) [LANSOPRAZOLE], for which the Z-SCORE was -1.16.

As to `COc1cccc2c1C(=O)c1c(O)c3c(c(O)c1C2=O)C[C@@](O)(C(=O)CO)C[C@@H]3O[C@H]1C[C@H](N)[C@H](O)[C@H](C)O1` [DOXORUBICIN HYDROCHLORIDE], the Z-SCORE result is “flagged”.

The same experiment, now with this note: compound screen of the NIH Clinical Collection, sheet raw data NCC-003; compounds ranked by Z-score.
`COc1ccc(CC2c3cc(OC)c(OC)cc3CC[N+]2(C)CCC(=O)OCCCCCOC(=O)CC[N+]2(C)CCc3cc(OC)c(OC)cc3C2Cc2ccc(OC)c(OC)c2)cc1OC` (stereo not drawn) [ATRACURIUM BESYLATE] had a Z-SCORE of -0.66.

`COc1cc(C)nc(-n2nc(C)cc2OC)n1` [MEPIRIZOLE] yielded a Z-SCORE of 0.59.

`Nc1nc(Cl)nc2c1ncn2[C@@H]1O[C@H](CO)[C@@H](O)[C@H]1O` [2-CHLOROADENOSINE] displayed a Z-SCORE of 0.61.

`O=c1c(O[C@@H]2O[C@H](CO)[C@@H](O)[C@H](O)[C@H]2O)c(-c2ccc(O)c(O)c2)oc2cc(O)cc(O)c12` [Isoquercitrin] returned a Z-SCORE of 0.55.

Turning to `CN(C/C=C/C#CC(C)(C)C)Cc1cccc2ccccc12` [TERBINAFINE HCl], the Z-SCORE is listed as -0.44.

As for `CNCC(O)c1ccc(O)cc1` (stereo not drawn) [SYNEPHRINE], the Z-SCORE is -0.41.

`CC(C)(C)NC(=O)[C@@H]1C[C@@H]2CCCC[C@@H]2CN1C[C@@H](O)[C@H](Cc1ccccc1)NC(=O)[C@H](CC(N)=O)NC(=O)c1ccc2ccccc2n1` [SAQUINAVIR MESYLATE] returned a Z-SCORE of -0.84.

In the case of `CC1=NS(=O)(=O)c2cc(Cl)ccc2N1` [DIAZOXIDE], the Z-SCORE is given as 2.34.

Compound `CNC(=C[N+](=O)[O-])NCCSCc1csc(CN(C)C)n1` [NIZATIDINE] showed a Z-SCORE of -0.53.

In turn, `COc1cc(N)c(Cl)cc1C(=O)NC1CCN(CCCOc2ccc(F)cc2)CC1OC` (stereo not drawn) [Cisapride] registered a Z-SCORE of -0.15.

`CC(C)c1nc(CN(C)C(=O)N[C@H](C(=O)N[C@@H](Cc2ccccc2)C[C@H](O)[C@H](Cc2ccccc2)NC(=O)OCc2cncs2)C(C)C)cs1` [RITONAVIR]: the Z-SCORE is on record as -0.37.

For `CN1CCC(=C2c3ccccc3CC(=O)c3sccc32)CC1` [KETOTIFEN FUMARATE], the Z-SCORE is given as -0.37.

On to `COC(=O)C1=C(C)NC(C)=C(C(=O)OCC(C)C)C1c1ccccc1[N+](=O)[O-]` (stereo not drawn) [NISOLDIPINE], for which the Z-SCORE was determined as 2.32.

In the case of `CS(=O)(=O)O.O=C1CC2(CCCC2)CC(=O)N1CCNCC1COc2ccccc2O1` (stereo not drawn), the Z-SCORE is on record as 0.35.

`CNS(=O)(=O)Cc1ccc2[nH]cc(CCN(C)C)c2c1` [SUMATRIPTAN SUCCINATE] returned a Z-SCORE of -0.07.

`Nc1nnc(-c2cccc(Cl)c2Cl)c(N)n1` [LAMOTRIGINE] had a Z-SCORE of 0.3.

The compound `COc1cc2c(cc1OC)[C@@]13CCN4CC5=CCO[C@H]6CC(=O)N2[C@H]1[C@H]6[C@H]5C[C@H]43` [Brucine] had a Z-SCORE of 0.21.

In turn, `C[C@H]1O[C@H](O[C@H]2[C@H](O)[C@@H](O)[C@@H](O[C@H]3[C@H](O)[C@@H](O)C(O)O[C@@H]3CO)O[C@@H]2CO)[C@H](O)[C@@H](O)[C@@H]1N[C@H]1C=C(CO)[C@@H](O)[C@H](O)[C@H]1O` (stereo partly drawn) [ACARBOSE] yielded a Z-SCORE of -0.8.

`C=C(C)CN1CC[C@]23c4c5ccc(O)c4O[C@H]2c2[nH]c4ccccc4c2C[C@@]3(O)C1C5.Cl.O` [SDM25N] had a Z-SCORE of -0.11.

Turning to `CCCCCCCCCCC[C@@H](C[C@@H]1OC(=O)[C@H]1CCCCCC)OC(=O)[C@H](CC(C)C)NC=O` [ORLISTAT], the Z-SCORE is recorded as 0.19.

`COc1cc(C(=O)NC2CCCNC2)cc(OC)c1OC` (stereo not drawn) [TROXIPIDE] returned a Z-SCORE of -0.33.

For the compound `CS(=O)(=O)c1ccc(-c2cc(Br)sc2-c2ccc(F)cc2)cc1`, the Z-SCORE worked out at 0.49.

Turning to `CC(=O)CCCCn1c(=O)c2c(ncn2C)n(C)c1=O` [Pentoxifylline], the Z-SCORE is reported as -0.43.

In the case of `CN(C)CCC[C@@]1(c2ccc(F)cc2)OCc2cc(C#N)ccc21` [ESCITALOPRAM OXALATE], the Z-SCORE is on record as -0.11.

For the compound `Cc1nccn1CC1CCc2c(c3ccccc3n2C)C1=O.Cl` (stereo not drawn) [ONDANSETRON HYDROCHLORIDE], the Z-SCORE worked out at 0.51.

The compound `C[C@]12C[C@H](O)[C@H]3[C@@H](CCC4=CC(=O)CC[C@@]43C)[C@@H]1CC[C@@H]2C(=O)CO` [CORTICOSTERONE] yielded a Z-SCORE of 0.4.

In turn, `Nc1ccn([C@@H]2CS[C@H](CO)O2)c(=O)n1` [LAMIVUDINE, reference compound] showed a Z-SCORE of 0.14.

`NC(=O)OCC(COC(N)=O)c1ccccc1` [Felbamate]: the Z-SCORE is -0.25.

As for `Cl.Cn1c(NCCN(CCO)CCCc2ccc([N+](=O)[O-])cc2)cc(=O)n(C)c1=O` [NIFEKALANT HCl], the Z-SCORE stood at 1.92.

In turn, `CC(C)[C@H]1CC[C@H](C(=O)N[C@H](Cc2ccccc2)C(=O)O)CC1` [NATEGLINIDE] showed a Z-SCORE of -0.03.

With `Cc1occc(=O)c1O` [118-71-8], the Z-SCORE came to 0.13.

Consider `O=C(O[C@H]1[C@H](Oc2ccccc2COC(=O)C2(O)C=CCCC2=O)O[C@H](CO)[C@@H](O)[C@@H]1O)c1ccccc1` (stereo partly drawn) [TREMULACIN], for which the Z-SCORE is listed as 0.29.

`NCCc1ccccn1` [2-(2-AMINOETHYL)PYRIDINE] came in with a Z-SCORE of 2.15.

In the case of `CN(CCOc1ccc(NS(C)(=O)=O)cc1)CCc1ccc(NS(C)(=O)=O)cc1` [DOFETILIDE], the Z-SCORE came out at 0.

Still in this experiment, the particulars now being: compounds at 10 μM, 24 h; PC12 split TEV assay cells co-cultured with Nrg1-expressing PC12 cells; analysed with cellHTS2.
Turning to `COc1ccc(Cl)cc1C(=O)NCCc1ccc(S(=O)(=O)NC(=O)NC2CCCCC2)cc1` [Glyburide, reference compound], the Z-SCORE is recorded as -0.5.

Consider `CN1[C@@H]2CC[C@H]1C[C@@H](OC(c1ccccc1)c1ccccc1)C2.CS(=O)(=O)O` [Cogentin Mesylate, reference compound], for which the Z-SCORE was -2.36.

`C=CCN1CC[C@]23c4c5ccc(O)c4O[C@H]2C(=O)CC[C@@]3(O)[C@H]1C5` [NALOXONE HYDROCHLORIDE, reference compound] gave a Z-SCORE of -0.39.

`O=C1CC2(CCCC2)CC(=O)N1CCCCN1CCN(c2ncccn2)CC1` [Buspar, reference compound] returned a Z-SCORE of -0.01.

Turning to `CN(C)CCCN1c2ccccc2Sc2ccc(Cl)cc21` [Sonazine, reference compound], the Z-SCORE was 0.6.

With `CC(C)N(CCC(C(N)=O)(c1ccccc1)c1ccccn1)C(C)C` (stereo not drawn) [Norpace, reference compound], the Z-SCORE amounted to 0.73.

Compound `CC(C)OC(=O)C(C)(C)Oc1ccc(C(=O)c2ccc(Cl)cc2)cc1` [FENOFIBRATE, reference compound] came in with a Z-SCORE of 0.77.

Compound `CC1Cc2ccccc2N1NC(=O)c1ccc(Cl)c(S(N)(=O)=O)c1` (stereo not drawn) [INDAPAMIDE, reference compound] gave a Z-SCORE of 0.07.

Take `CCOC(=O)[C@H](CCc1ccccc1)N[C@@H](C)C(=O)N1Cc2ccccc2C[C@H]1C(=O)O` [Quinapril hydrochloride, reference compound]: the Z-SCORE is given as -1.66.

As to `C[C@]12C=CC(=O)C=C1CC[C@@H]1[C@@H]2[C@@H](O)C[C@@]2(C)[C@H]1CC[C@]2(O)C(=O)CO` [Prednisolone, reference compound], the Z-SCORE is on record as -1.95.

`CCCc1cc(=O)[nH]c(=S)[nH]1` [Propylthiouracil, reference compound] registered a Z-SCORE of 0.58.

In turn, “S(-)-Timolol maleate [reference compound]” came in with a Z-SCORE of -0.49.

Compound `C[N+]1(C)CCCC(OC(=O)C(O)(c2ccccc2)c2ccccc2)C1` (stereo not drawn) [MEPENZOLATE BROMIDE, reference compound] came in with a Z-SCORE of -0.58.

Turning to `CCc1c(C)[nH]c2c1C(=O)C(CN1CCOCC1)CC2` (stereo not drawn) [Moban, reference compound], the Z-SCORE was -0.44.

For the compound `CC(=O)/N=c1/sc(S(N)(=O)=O)nn1C` [Methazolamide, reference compound], the Z-SCORE is on record as 0.38.

For `Nc1ccn([C@@H]2CS[C@H](CO)O2)c(=O)n1` [LAMIVUDINE, reference compound], the Z-SCORE is recorded as 0.33.

In turn, `CCN(CC)CCNC(=O)c1cc(Cl)c(N)cc1OC.Cl` [Maxolon, reference compound] gave a Z-SCORE of -1.12.

Regarding `CCN(CC)CCNC(=O)c1ccc(N)cc1` [Pronestyl, reference compound], the Z-SCORE is 0.04.

In turn, `Cl.NCC(O)c1ccc(O)c(O)c1` (racemic) [(+/-)-NOREPINEPHRINE HYDROCHLORIDE, reference compound] displayed a Z-SCORE of 1.11.

`NC12CC3CC(CC(C3)C1)C2` [Symmetrel, reference compound] gave a Z-SCORE of 0.15.

Compound `CCCNCC(O)COc1ccccc1C(=O)CCc1ccccc1` (stereo not drawn) [Rythmol, reference compound] registered a Z-SCORE of 0.2.

`C[n+]1ccccc1/C=N/O.[Cl-]` [PYRIDINE-2-ALDOXIME METHOCHLORIDE, reference compound] had a Z-SCORE of 2.7.

Turning to `Oc1cc(Cl)ccc1Oc1ccc(Cl)cc1Cl` [Triclosan, reference compound], the Z-SCORE entry is “flagged”.

Regarding `CN(C)C(=O)C(CCN1CCC(O)(c2ccc(Cl)cc2)CC1)(c1ccccc1)c1ccccc1` [Imodium, reference compound], the Z-SCORE is on record as -0.18.
